Measured values reported in ChEMBL document CHEMBL1687870, “Antimicrobial isopropenyl-dihydrofuranoisoflavones from Crotalaria lachnophora” (2011).
Activity calls are given as the source filed them. The calls are words filed in the database; no cut-off is given here.

Columns and labels:
Aspergillus niger = test: Antifungal activity against Aspergillus niger DSM 1988 after 48 hrs by disk diffusion method; type: functional, organism-based
Klebsiella pneumoniae = test: Antimicrobial activity against Klebsiella pneumoniae DSM 681 at 1 ug/ul after 24 hrs by disk diffusion method; type: functional
Escherichia coli = test: Antimicrobial activity against Escherichia coli DSM 682 after 24 hrs by disk diffusion method; type: functional
Pseudomonas aeruginosa = test: Antimicrobial activity against Pseudomonas aeruginosa DSM 1128 at 1 ug/ul after 24 hrs by disk diffusion method; type: functional
Staphylococcus aureus = test: Antimicrobial activity against Staphylococcus aureus DSM 799 at 1 ug/ul after 24 hrs by disk diffusion method; type: functional
Candida albicans = test: Antifungal activity against Candida albicans DSM 1386 after 24 hrs by disk diffusion method; type: functional, organism-based

Row | Compound | Activity (Aspergillus niger) | diameter of the inhibition zone (DIZ) (Klebsiella pneumoniae) [mm] | diameter of the inhibition zone (DIZ) (Escherichia coli) [mm] | Activity (Pseudomonas aeruginosa) | Activity (Staphylococcus aureus) | Activity (Candida albicans) | diameter of the inhibition zone (DIZ) (Pseudomonas aeruginosa) [mm] | diameter of the inhibition zone (DIZ) (Staphylococcus aureus) [mm] | inhibition zone (IZ) (Klebsiella pneumoniae) [mm] | inhibition zone (IZ) (Escherichia coli) [mm] | inhibition zone (IZ) (Pseudomonas aeruginosa) [mm] | inhibition zone (IZ) (Staphylococcus aureus) [mm]
1 | COc1cc(O)c2c(=O)c(-c3ccc(O)cc3O)coc2c1 [CAJANIN] | inactive | 9.7 | 7.3 | inactive | inactive | inactive | – | – | – | – | – | –
2 | CN(C)[C@@H]1C(O)=C(C(N)=O)C(=O)[C@@]2(O)C(O)=C3C(=O)c4c(O)cccc4[C@@](C)(O)[C@H]3C[C@@H]12 [TETRACYCLINE] | – | 26.3 | 22.3 | – | – | – | 17.7 | 20.7 | – | – | – | –
3 | COc1cc(O)c2c(c1)OC[C@H](c1ccc(O)cc1OC)C2=O [CAJANOL] | inactive | 9.3 | 7.3 | inactive | inactive | inactive | – | – | – | – | – | –
4 | CN[C@@H]1[C@H](O[C@H]2[C@H](O[C@H]3[C@H](O)[C@@H](O)[C@H](N=C(N)N)[C@@H](O)[C@@H]3N=C(N)N)O[C@@H](C)[C@]2(O)C=O)O[C@@H](CO)[C@H](O)[C@H]1O [STREPTOMYCIN] | – | 21.3 | 19.3 | inactive | inactive | – | – | – | – | – | – | –
5 | CC1(C)S[C@@H]2[C@H](NC(=O)[C@H](N)c3ccccc3)C(=O)N2[C@H]1C(=O)O [AMPICILLIN] | – | 11.7 | 24.3 | inactive | inactive | – | – | – | – | – | – | –
6 | COc1cc2occ(-c3ccc(O)cc3)c(=O)c2c(O)c1OC [7-O-METHYLTECTORIGENIN] | inactive | 7 | 9.3 | inactive | inactive | inactive | – | – | – | – | – | –
7 | O=c1c(-c2ccc(O)cc2O)coc2cc(O)cc(O)c12 | inactive | 7 | 7 | inactive | inactive | inactive | – | – | – | – | – | –
8 | C=C(C)[C@H]1Cc2c(cc3occ(-c4ccc(O)cc4)c(=O)c3c2O)O1 [LICOAGROISOFLAVONE] | inactive | 9.3 | 7.3 | inactive | inactive | inactive | – | – | – | – | – | –
9 | C[C@@H]1O[C@@H](Oc2cc(O)c3c(=O)cc(-c4ccc(O)c(O)c4)oc3c2)[C@H](O)[C@H](O)[C@H]1O | inactive | 7.7 | 10.7 | inactive | inactive | inactive | – | – | – | – | – | –
10 | C=C(C)C1Cc2c(O)cc3occ(-c4ccc(O)cc4O)c(=O)c3c2O1 (racemic) | inactive | 7 | 8.3 | inactive | inactive | inactive | – | – | – | – | – | –
11 | COc1cc(-c2coc3cc(O)cc(O)c3c2=O)ccc1O [3'-O-METHYLOROBOL] | inactive | 8.3 | 7 | inactive | inactive | inactive | – | – | – | – | – | –
12 | COc1cc(O)c2c(=O)c(-c3ccc(O)cc3)coc2c1 [PRUNETIN] | inactive | 9.3 | 7.3 | inactive | inactive | inactive | – | – | – | – | – | –
13 | C=C(C)C1Cc2c(cc3oc4oc5cc(O)ccc5c4c(=O)c3c2O)O1 (stereo unspecified) [LACHNOISOFLAVONE B] | inactive | 7.3 | 7 | inactive | inactive | inactive | – | – | – | – | – | –
14 | GENTAMICIN | – | – | – | – | – | – | – | – | 14.3 | 16.3 | 20.3 | 15.3
